In US20020155519A1 (priority 1997, published 2002):
Entries after “also recorded” stand apart in the source; their conditions may differ. Like-named read-outs stand apart in the source and are kept apart here.

Columns and labels:
[1] = system: human blood bacterium (HBB); format: cell-based
Protocol: Normally 1 ml of serum was added to 9 ml of medium. Larger flasks with a proportionately larger amount of serum and medium are used to produce bacteria in quantity. Modulators might be added to some flasks in 10× or higher concentration (corresponding to addition of 1 ml or less). When examining the effect of modulators, control flasks were prepared similarly without the addition of the modulator. Levels were observed microscopically (inverted phase microscope, observing the number of organisms per field crudely or by actual count) after incubation, typically at several points in time.
When multiple comparisons were done at once, they were done in 12 well or 24 well cell culture plates, most often the latter. With the latter, typically 1 ml of medium inoculated with serum is added to each well, with modulators added at 10× or higher concentration (0.1 ml or less). When comparisons are done in well plates, control wells without any additions are included. Levels were observed microscopically (inverted phase microscope) after incubation, typically at several points in time. The well plate cultures were also used for antibiotic sensitivity testing.
These procedures are those known in the art and include uses of antibodies and DNA probes, Western and Southern blots, PCR and the diagnostic kits therefor. First, organisms can be quantified by culture. […] If a means is found to immobilize the bacteria to grow isolated colonies, counts will be more accurate. Quantification is used to follow the progress of treatment and to correlate HBB levels with specific disease syndromes. Quantification is used also for antibiotic sensitivity measurements, comparing the level of growth with antibiotic treatment to the level of growth without treatment. Such antibiotic sensitivity measurements establish the basis for the clinical choice of antibiotic drugs.

[2] = system: yeast-like forms of HBB; assay: Suppression of yeast-like forms of HBB by antifungal agents; format: cell-based, human blood bacterium (HBB)
[3] = system: human blood bacterium (HBB); format: cell-based; remark: listed apart in the source

CCN(CC)CCCC(C)Nc1ccnc2cc(Cl)ccc12 (centres unmarked) [chloroquin]
antibiotic sensitivity of HBB strains/isolates in culture ([1]; concentration not printed): synergistic effect with a few isolates

CCCCCCCCCCC(=O)[O-].[Na+] [sodium undecylate]
observed antibiotic and antifungal sensitivities (outcome, number of isolates) ([1]; 50 μg/ml): no effect (1 isolate) | suppression of yeast-like forms [2]: no suppression

Clc1ccccc1C(c1ccccc1)(c1ccccc1)n1ccnc1 [clotrimazol]
observed antibiotic and antifungal sensitivities (outcome, number of isolates) [1]: no effect (1 isolate) | suppression of yeast-like forms [2]: no suppression

CCN(CC)CCCC(C)Nc1c2ccc(Cl)cc2nc2ccc(OC)cc12 (centres unmarked) [quinacrine]
observed antibiotic and antifungal sensitivities (outcome, number of isolates) [1]: no effect (1 isolate)

CC1(C)S[C@@H]2[C@H](NC(=O)COc3ccccc3)C(=O)N2[C@H]1C(=O)O [penicillin V]
observed antibiotic and antifungal sensitivities (outcome, number of isolates) ([1]; 1-2 μg/ml): no effect (27 isolates); also recorded: sensitive (17 isolates); also recorded: growth stimulated (4 isolates) | antibiotic sensitivity of HBB strains/isolates in culture ([1]; concentration not printed): relatively sensitive

CC[C@H]1OC(=O)[C@H](C)[C@@H](O[C@H]2C[C@@](C)(OC)[C@@H](O)[C@H](C)O2)[C@H](C)[C@@H](O[C@@H]2O[C@H](C)C[C@H](N(C)C)[C@H]2O)[C@](C)(OC)C[C@@H](C)C(=O)[C@H](C)[C@@H](O)[C@]1(C)O [clarithromycin]
antibiotic sensitivity of HBB strains/isolates in culture ([1]; concentration not printed): some strains show sensitivity; also recorded: often stimulate growth | antibiotic sensitivity of HBB strains/isolates in culture ([1]; concentration not printed, listed as Clarithromycin): appears more effective in culture

C[C@@H]1[C@H](O)[C@@H](C)/C=C/C=C/CC/C=C/C=C/C=C/C=C/C(O[C@H]2O[C@H](C)[C@@H](O)[C@H](N)[C@@H]2O)CC2O[C@](O)(CC(O)C(O)CCC(O)CC(O)CC(O)CC(=O)O[C@H]1C)CC(O)C2C(=O)O (some centres unmarked) [nystatin]
observed antibiotic and antifungal sensitivities (outcome, number of isolates) ([1]; saturated): no effect (1 isolate) | suppression of yeast-like forms [2]: no suppression

O=C(O)c1cc(/N=N/c2ccc(S(=O)(=O)Nc3ccccn3)cc2)ccc1O [sulfasalazine]
observed antibiotic and antifungal sensitivities (outcome, number of isolates) [1]: no effect (6 isolates); also recorded: no effect (isolate)

CCN(CCO)CCCC(C)Nc1ccnc2cc(Cl)ccc12 (centres unmarked) [hydroxychloroquin]
antibiotic sensitivity of HBB strains/isolates in culture ([1]; concentration not printed): synergistic effect with a few isolates

CN[C@H](CC(C)C)C(=O)N[C@H]1C(=O)N[C@@H](CC(N)=O)C(=O)N[C@H]2C(=O)N[C@H]3C(=O)N[C@H](C(=O)N[C@H](C(=O)O)c4cc(O)cc(O)c4-c4cc3ccc4O)[C@H](O)c3ccc(c(Cl)c3)Oc3cc2cc(c3O[C@@H]2O[C@H](CO)[C@@H](O)[C@H](O)[C@H]2O[C@H]2C[C@](C)(N)[C@H](O)[C@H](C)O2)Oc2ccc(cc2Cl)[C@H]1O [vancomycin]
observed antibiotic and antifungal sensitivities (outcome, number of isolates) [1]: no effect (1 isolate)

Clc1ccc(COC(Cn2ccnc2)c2ccc(Cl)cc2Cl)c(Cl)c1 (centres unmarked) [miconazol]
observed antibiotic and antifungal sensitivities (outcome, number of isolates) [1]: no effect (1 isolate) | suppression of yeast-like forms [2]: no suppression

CC1=C(C(=O)O)N2C(=O)[C@@H](NC(=O)[C@H](N)c3ccc(O)cc3)[C@H]2SC1 [cefadroxil]
observed antibiotic and antifungal sensitivities (outcome, number of isolates) [1]: no effect (1 isolate)

COc1cc(Cc2cnc(N)nc2N)cc(OC)c1OC [trimethoprim]
antibiotic sensitivity of HBB strains/isolates in culture [1]: resistance | observed antibiotic and antifungal sensitivities (outcome, number of isolates) [1]: no effect (1 isolate)

Cc1cccc(N(C)C(=S)Oc2ccc3ccccc3c2)c1 [tolnaftate]
observed antibiotic and antifungal sensitivities (outcome, number of isolates) ([1]; 2 μg/ml): no effect (1 isolate)

CC[C@H]1OC(=O)[C@H](C)[C@@H](O[C@H]2C[C@@](C)(OC)[C@@H](O)[C@H](C)O2)[C@H](C)[C@@H](O[C@@H]2O[C@H](C)C[C@H](N(C)C)[C@H]2O)[C@](C)(O)C[C@@H](C)CN(C)[C@H](C)[C@@H](O)[C@]1(C)O [azothromycin]
antibiotic sensitivity of HBB strains/isolates in culture [1]: some strains show sensitivity; also recorded: often stimulate growth | observed antibiotic and antifungal sensitivities (outcome, number of isolates) [1]: no effect (6 isolates); also recorded: sensitive (7 isolates)

NCC[C@H](O)C(=O)N[C@@H]1C[C@H](N)[C@@H](O[C@H]2O[C@H](CN)[C@@H](O)[C@H](O)[C@H]2O)[C@H](O)[C@H]1O[C@H]1O[C@H](CO)[C@@H](O)[C@H](N)[C@H]1O [amikacin]
observed antibiotic and antifungal sensitivities (outcome, number of isolates) ([1]; 2 μg/ml): no effect (1 isolate)

gentamycin
observed antibiotic and antifungal sensitivities (outcome, number of isolates) ([1]; 2 μg/ml): no effect (1 isolate)

O=C(O)c1cn(C2CC2)c2cc(N3CCNCC3)c(F)cc2c1=O [ciprofloxacin]
antibiotic sensitivity of HBB strains/isolates in culture [1]: Some strains are sensitive | observed antibiotic and antifungal sensitivities (outcome, number of isolates) [1]: no effect (5 isolates); also recorded: partially sensitive (1 isolate)

Nc1ccc(S(=O)(=O)c2ccc(N)cc2)cc1 [dapsone]
observed antibiotic and antifungal sensitivities (outcome, number of isolates) [1]: no effect (1 isolate)

O=C([O-])c1ccccc1.[Na+] [sodium benzoate]
observed antibiotic and antifungal sensitivities (outcome, number of isolates) ([1]; 50 μg/ml): no effect (1 effect) | suppression of yeast-like forms [2]: no suppression

CC[C@H]1OC(=O)[C@H](C)[C@@H](O[C@H]2C[C@@](C)(OC)[C@@H](O)[C@H](C)O2)[C@H](C)[C@@H](O[C@@H]2O[C@H](C)C[C@H](N(C)C)[C@H]2O)[C@](C)(O)C[C@@H](C)C(=O)[C@H](C)[C@@H](O)[C@]1(C)O [erythromycin]
antibiotic sensitivity of HBB strains/isolates in culture [1]: resistant

Cc1onc(-c2ccccc2)c1C(=O)N[C@@H]1C(=O)N2[C@@H]1SC(C)(C)[C@@H]2C(=O)O [oxacillin]
antibiotic sensitivity of HBB strains/isolates in culture [1]: occasional isolates show higher sensitivity

NNC(=O)c1ccncc1 [isoniazid]
observed antibiotic and antifungal sensitivities (outcome, number of isolates) ([1]; 2 μg/ml): no effect (24 isolates); also recorded: sensitive (5 isolates); also recorded: growth stimulated (6 isolates) | antibiotic sensitivity of HBB strains/isolates in culture ([1]; concentration not printed): some isolates are sensitive

Nc1ccc(O)c(C(=O)O)c1 [5-aminosalicylic acid]
observed antibiotic and antifungal sensitivities (outcome, number of isolates) ([1]; 20 μg/ml): no effect (4 isolates)

CC1(C)S[C@@H]2[C@H](NC(=O)Cc3ccccc3)C(=O)N2[C@H]1C(=O)O [penicillin G]
antibiotic sensitivity of HBB strains/isolates in culture ([1]; concentration not printed): relatively sensitive

Nc1ccc(S(=O)(=O)Nc2ccccn2)cc1 [sulfapyridine]
observed antibiotic and antifungal sensitivities (outcome, number of isolates) [1]: no effect (6 isolates); also recorded: no effect (1 isolate)

CCn1cc(C(=O)O)c(=O)c2ccc(C)nc21 [nalidixic acid]
observed antibiotic and antifungal sensitivities (outcome, number of isolates) ([1]; 4 μg/ml): no effect (1 isolate)

CC1(C)S[C@@H]2[C@H](NC(=O)[C@H](N)c3ccc(O)cc3)C(=O)N2[C@H]1C(=O)O [amoxicillin]
antibiotic sensitivity of HBB strains/isolates in culture [1]: less sensitivity

O=C(O)c1cc(=O)[nH]c(=O)[nH]1 [orotic acid]
effect on HBB growth in culture ([3]; 4 μg/ml): Little or no stimulation or inhibition

COC(C)=O [methyl acetate]
effect on HBB growth in culture ([3]; added to ½ strength medium O or RPMI): minimal or no stimulation of growth

CCC(=O)[O-].[Na+] [sodium propionate]
observed antibiotic and antifungal sensitivities (outcome, number of isolates) ([1]; 50-250 μg/ml): no effect (2 isolates) | suppression of yeast-like forms [2]: no suppression

amphoptericin
observed antibiotic and antifungal sensitivities (outcome, number of isolates) ([1]; 0.25 μg/ml): no effect (1 isolate) | suppression of yeast-like forms [2]: no suppression

COc1cc(NC(C)CCCN)c2ncccc2c1 (centres unmarked) [primaquine]
observed antibiotic and antifungal sensitivities (outcome, number of isolates) [1]: no effect (31 isolates); also recorded: sensitive (15 isolates); also recorded: growth stimulated (1 isolate)

[Mg+2] [magnesium]
effect on HBB growth in culture ([3]; concentration not printed): little effect on the growth

O=BOB(O)OB(O)OB=O [borax]
effect on HBB growth in culture ([3]; 14 μg/ml): Little or no stimulation or inhibition

Cc1cc(NS(=O)(=O)c2ccc(N)cc2)no1 [sulfamethoxazole]
antibiotic sensitivity of HBB strains/isolates in culture [1]: no effect (1 isolate)

CC1=C(C(=O)O)N2C(=O)[C@@H](NC(=O)[C@H](N)c3ccccc3)[C@H]2SC1 [cephalexin]
observed antibiotic and antifungal sensitivities (outcome, number of isolates) [1]: no effect (1 isolate)

Cc1onc(-c2ccccc2Cl)c1C(=O)N[C@@H]1C(=O)N2[C@@H]1SC(C)(C)[C@@H]2C(=O)O [cloxacillin]
observed antibiotic and antifungal sensitivities (outcome, number of isolates) ([1]; 2 μg/ml): no effect (16 isolates); also recorded: sensitive (5 isolates); also recorded: growth stimulated (6 isolates) | antibiotic sensitivity of HBB strains/isolates in culture ([1]; concentration not printed): occasional isolates show higher sensitivity

CN(Cc1cnc2nc(N)nc(N)c2n1)c1ccc(C(=O)N[C@@H](CCC(=O)O)C(=O)O)cc1 [methotrexate, reference compound]
effect on HBB growth in culture ([3]; concentration not printed): no inhibition
